Measured values as given in patent US9649314B2, “Pyrimido[4,5-b]quinoline-4,5(3H,10H)-diones” (NOVARTIS AG, priority 2012, dated 2017).
Like-named read-outs stand apart in the source and are kept apart here.

System: CFTR-Y122X
Test: CFTR-Y122X assay (dual reporter isogenic Hek293 cell lines, Renilla luminescence readthrough)
Assay type: cell-based
Conditions: Homo sapiens, HEK293; for Emax at 100 µM: measured at 100 μM compound concentration (footnote d)
Text: Activity of compounds of the present invention was examined in recombinant, dual reporter isogenic Hek293 cell lines (“CFTR-Y122X assay”). The engineered reporter constructs contained the 18 bp sequence stretch corresponding to a common Y122X PTC mutation in CFTR class I mutant patients (see Sermet-Gaudelus, BMC Medicine, 2007, 5(5)). Instead of a tyrosine (Y) in position 122 of the CFTR protein a TGA stop codon interrupts the open reading frame (Y122X) of the corresponding mRNA. This TGA stop codon triplet (followed by the pyrimidine base cytosine) is permissive to aminoglycoside mediated translational readthrough which served as positive control for high throughput screening. A corresponding TAA stop codon variant and a wildtype non mutated construct was used for confirmation and counter screening. The CFTR sequence was sandwiched between an eGFP reporter, and a triple myc tag sequence fused to a full length Renilla reporter. All sequences, including an intron containing one positioned pre-eGFP (b-globin intron) were cloned in frame. The corresponding expression constructs were stably expressed in the isogenic HEK-R4 cell host (Invitrogen Incorp.) and selected by blasticidin resistance. The isogenic integration of the construct minimizes gene dose effects and improves assay reproducibility. Stably integrated single cell derived clones were selected and characterized for aminoglycoside mediated readthrough. […] Readthrough of Y122X accumulates an intracellular localized fusion protein approximately 65.5 kDa in size as controlled by western blot analysis and immunofluorescence using an anti-renilla antibody. The eGFP reporter pre-PTC mutation serves as visual control for genetic stability of the screening clones and minimizes protein degradation of small fusion protein amounts. In the assay, compound concentration was 10 μM. In miniaturized 1536 well format 2000 cells were dispensed in 4 μl/well and incubated for 24 h at 37° C., 5% CO2. 40 nl compounds were placed on the cells with control wells containing 1 ul Paramomycin and 14.4 mM final concentration. Compounds were incubated for 24 h. Renilla Glo substrate (2.5 ul) was added and plates were centrifuged and processed for luminescence measurement using various readers. Activity calculation was done using the equation: A1 (%)=100*(S−NC)/(AC−NC) where AC, NC and S correspond to active controls (injection of Stimulation buffer=100% stimulation), neutral controls (buffer injection which Iloprost EC10) and screening samples (S). NC corresponds to 0% activity whereas AC is 100% activity (14 mM paromomycin). False positive artefacts were removed in confirmation and validation screening using the same assay format followed by counterscreening using the respective wildtype construct (w/o PTC mutation) cell model. Compounds were tested up to 100 μM compound concentration.

[1] = nonsense mutation suppression, 100% = 14 mM paromomycin, 24 h incubation, tested up to 100 μM, read-out: Amax [%]
[2] = nonsense mutation suppression, 24 h incubation
[3] = at the above dose ranges (up to 100 μM), read-out: suppression, % of paromomycin reference activity
[4] = read-out: Amax [%]: % nonsense mutation suppression relative to paromomycin reference activity

Compound | Emax [1] [%] | AC50 [2] [µM] | further results
COc1ccc(-c2nc3c(c(=O)c4ccccc4n3C)c(=O)n2C2CCCCC2)cc1 [Example 2.27, 3-cyclohexyl-2-(4-methoxyphenyl)-10-methylpyrimido[4,5-b]quinoline-4,5(3H,10H)-dione] |  |  | Emax at 25 µM (measured at 25 μM compound concentration (footnote a), read-out: Amax [%]: % nonsense mutation suppression relative to paromomycin reference activity): 97%
COC1CC(c2nc3c(c(=O)c4ccccc4n3C)c(=O)n2-c2ccccc2)C1 (centres unmarked) [Example 1.8, 2-(3-methoxycyclobutyl)-10-methyl-3-phenylpyrimido[4,5-b]quinoline-4,5(3H,10H)-dione] | 18 | 11.8 | 
COc1cccc2c(=O)c3c(=O)n(C4CCCC4)c(C(C)C)nc3n(C)c12 [Example 2.9, 3-cyclopentyl-2-isopropyl-9-methoxy-10-methylpyrimido[4,5-b]quinoline-4,5(3H,10H)-dione] | 73 | 18.4 | 
CC(C)c1nc2c(c(=O)c3ccccc3n2C)c(=O)n1-c1ccccc1Br [Example 1.40, 3-(2-bromophenyl)-2-isopropyl-10-methylpyrimido[4,5-b]quinoline-4,5(3H,10H)-dione] | 112 | 12.1 | 
Cn1c2ccccc2c(=O)c2c(=O)n(-c3ccccc3)c(C3CC(C)(C)C3)nc21 [Example 1.7, 2-(3,3-dimethylcyclobutyl)-10-methyl-3-phenylpyrimido[4,5-b]quinoline-4,5(3H,10H)-dione] | 7 | 3.8 | 
Cn1c2ccccc2c(=O)c2c(=O)n(C3CCCCCC3)c(-c3ccc(F)cc3)nc21 [3-cycloheptyl-2-(4-fluorophenyl)-10-methylpyrimido[4,5-b]quinoline-4,5(3H,10H)-dione] |  |  | Emax [3]: < 5%
Cc1ccc2c(c1)c(=O)c1c(=O)n(-c3ccccc3)c(C(C)C)nc1n2C [Example 1.26, 2-isopropyl-7,10-dimethyl-3-phenylpyrimido[4,5-b]quinoline-4,5(3H,10H)-dione] | 254 | 9.6 | 
NC[C@@H]1O[C@H](O[C@H]2[C@@H](O)[C@H](O[C@@H]3[C@@H](O)[C@H](N)C[C@H](N)[C@H]3O[C@H]3O[C@H](CO)[C@@H](O)[C@H](O)[C@H]3N)O[C@@H]2CO)[C@H](N)[C@@H](O)[C@@H]1O [paromomycin, reference compound] |  |  | EC50 (clone pursued for HTS assay development, read-out: EC50 (readthrough response of the selected clone)): 1500 µM
Cn1c2ccccc2c(=O)c2c(=O)n(C3CCCC3)c(-c3ccc(Cl)cc3)nc21 [2-(4-chlorophenyl)-3-cyclopentyl-10-methylpyrimido[4,5-b]quinoline-4,5(3H,10H)-dione] |  |  | Emax [3]: < 5%
Cn1c2ccccc2c(=O)c2c(=O)n(C3CCCCC3)c(-c3ccccc3)nc21 [Example 2.16, 3-cyclohexyl-10-methyl-2-phenylpyrimido[4,5-b]quinoline-4,5(3H,10H)-dione] | 312 | 8.6 | 
Cn1c2ccccc2c(=O)c2c(=O)n(C3CCCC3)c(-c3ccc(C(C)(C)C)cc3)nc21 [2-(4-(tert-butyl)phenyl)-3-cyclopentyl-10-methylpyrimido[4,5-b]quinoline-4,5(3H,10H)-dione] |  |  | Emax [3]: < 5%
NCCn1c2ccccc2c(=O)c2c(=O)n(-c3ccccc3)c(C3CCC3)nc21 [Example 1.37, 10-(2-aminoethyl)-2-cyclobutyl-3-phenylpyrimido[4,5-b]quinoline-4,5(3H,10H)-dione] | 348 | 0.9 | 
CCCn1c2ccccc2c(=O)c2c(=O)n(-c3ccccc3)c(C(C)C)nc21 [Example 1.44, 2-isopropyl-3-phenyl-10-propylpyrimido[4,5-b]quinoline-4,5(3H,10H)-dione] | 118 | 15.2 | 
CCC(C)c1nc2c(c(=O)c3ccccc3n2C)c(=O)n1C1CCCC1 (centres unmarked) [Example 2.4, 2-(sec-butyl)-3-cyclopentyl-10-methylpyrimido[4,5-b]quinoline-4,5(3H,10H)-dione] | 258 | 6.1 | 
Cc1cc(C)cc(-n2c(C(C)C)nc3c(c(=O)c4ccccc4n3C)c2=O)c1 [Example 1.35, 3-(3,5-dimethylphenyl)-2-isopropyl-10-methylpyrimido[4,5-b]quinoline-4,5(3H,10H)-dione] | 13 | 1.5 | 
CC(C)c1nc2c(c(=O)c3cccc4c3n2CC4)c(=O)n1-c1ccccc1 [Example 1.27, 9-isopropyl-8-phenyl-1H-pyrimido[4,5-b]pyrrolo[3,2,1-ij]quinoline-6,7(2H,8H)-dione] | 271 | 6.8 | 
Cn1c2ccccc2c(=O)c2c(=O)n(C3CCCCCC3)c(-c3cccs3)nc21 [Example 2.22, 3-cycloheptyl-10-methyl-2-(thiophen-2-yl)pyrimido[4,5-b]quinoline-4,5(3H,10H)-dione] | 197 | 11 | 
Cc1ccccc1-c1nc2c(c(=O)c3ccccc3n2C)c(=O)n1C1CCCCCC1 [Example 2.48, 3-cycloheptyl-10-methyl-2-(o-tolyl)pyrimido[4,5-b]quinoline-4,5(3H,10H)-dione] |  |  | Emax at 100 µM [4]: 7%
Cc1ccc(-c2nc3c(c(=O)c4ccccc4n3C)c(=O)n2C2CCCC2)cc1 [Example 2.40, 3-cyclopentyl-10-methyl-2-(p-tolyl)pyrimido[4,5-b]quinoline-4,5(3H,10H)-dione] | 20 | 6.7 | 
Cn1c2ccccc2c(=O)c2c(=O)n(-c3ccccc3)c(C3CC3)nc21 [Example 1.11, 2-cyclopropyl-10-methyl-3-phenylpyrimido[4,5-b]quinoline-4,5(3H,10H)-dione] | 188 | 9.1 | 
CCCCc1nc2c(c(=O)c3ccccc3n2C)c(=O)n1-c1ccccc1 [Example 1.12, 2-butyl-10-methyl-3-phenylpyrimido[4,5-b]quinoline-4,5(3H,10H)-dione] | 391 | 4.8 | 
COCCn1c2ccccc2c(=O)c2c(=O)n(-c3ccccc3)c(C(C)C)nc21 [Example 1.43, 2-isopropyl-10-(2-methoxyethyl)-3-phenylpyrimido[4,5-b]quinoline-4,5(3H,10H)-dione] | 9 |  | 
CCCc1nc2c(c(=O)c3ccccc3n2C)c(=O)n1C1CCCCCC1 [Example 2.23, 3-cycloheptyl-10-methyl-2-propylpyrimido[4,5-b]quinoline-4,5(3H,10H)-dione] | 181 | 5 | 
CC(C)Cn1c2ccccc2c(=O)c2c(=O)n(-c3ccccc3)c(C(C)C)nc21 [10-isobutyl-2-isopropyl-3-phenylpyrimido[4,5-b]quinoline-4,5(3H,10H)-dione] |  |  | Emax [3]: < 5%
Cn1c2ccccc2c(=O)c2c(=O)n(C3CCCC3)c(-c3cccs3)nc21 [Example 2.43, 3-cyclopentyl-10-methyl-2-(thiophen-2-yl)pyrimido[4,5-b]quinoline-4,5(3H,10H)-dione] | 17 | 14.7 | 
COc1cc(-c2nc3c(c(=O)c4ccccc4n3C)c(=O)n2C2CCCCCC2)cc(OC)c1OC [Example 2.42, 3-cycloheptyl-10-methyl-2-(3,4,5-trimethoxyphenyl)pyrimido[4,5-b]quinoline-4,5(3H,10H)-dione] | 18 | 10.7 | 
Cn1c2ccccc2c(=O)c2c(=O)n(-c3ccccc3)c(C3CCCC3)nc21 [Example 1.10, 2-cyclopentyl-10-methyl-3-phenylpyrimido[4,5-b]quinoline-4,5(3H,10H)-dione] | 277 | 11 | 
Cn1c2ccccc2c(=O)c2c(=O)n(C3CCCC3)c(-c3ccc(F)cc3)nc21 [Example 2.33, 3-cyclopentyl-2-(4-fluorophenyl)-10-methylpyrimido[4,5-b]quinoline-4,5(3H,10H)-dione] |  |  | Emax at 100 µM [4]: 18%
Cn1c2ccccc2c(=O)c2c(=O)n(C3CCCC3)c(-c3ccccc3)nc21 [Example 2.39, 3-cyclopentyl-10-methyl-2-phenylpyrimido[4,5-b]quinoline-4,5(3H,10H)-dione] |  |  | Emax at 50 µM (measured at 50 μM compound concentration (footnote e), read-out: Amax [%]: % nonsense mutation suppression relative to paromomycin reference activity): 31%
CN(C)c1nc2[nH]c3ccccc3c(=O)c2c(=O)n1-c1ccccc1 [Example 3.2, 2-(dimethylamino)-3-phenylpyrimido[4,5-b]quinoline-4,5(3H,10H)-dione] | 294 | 11.6 | 
